Broadly, the IC50 is the midpoint of a concentration-inhibition curve.

The record followed here is patent publication US20120196824A1, “THERAPEUTIC AGENT FOR CEREBRAL INFARCTION” (MITSUBISHI TANABE PHARMA CORPORATION, priority 2009, published 2012).

The structures appear in SMILES notation.

In this test the target is T1, Human-recombinant-S-Adenosyl-L-Homocysteine Hydrolase (Homo sapiens, UniProt P23526).
T1 construct: purchased Diazyme Laboratories
T1 sequence (P23526 whole entry): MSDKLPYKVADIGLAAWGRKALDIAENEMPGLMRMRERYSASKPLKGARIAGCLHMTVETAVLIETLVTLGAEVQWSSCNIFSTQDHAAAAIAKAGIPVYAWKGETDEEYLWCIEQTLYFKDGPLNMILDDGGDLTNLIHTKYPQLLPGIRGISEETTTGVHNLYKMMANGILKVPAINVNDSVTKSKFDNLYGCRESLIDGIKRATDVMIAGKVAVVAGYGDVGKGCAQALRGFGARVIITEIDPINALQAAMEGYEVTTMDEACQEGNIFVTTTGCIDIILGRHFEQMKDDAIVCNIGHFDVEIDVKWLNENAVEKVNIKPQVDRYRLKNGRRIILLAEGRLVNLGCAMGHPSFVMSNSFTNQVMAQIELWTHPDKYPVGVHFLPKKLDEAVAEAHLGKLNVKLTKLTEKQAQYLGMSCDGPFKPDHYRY
Nature of the test: Measurement of enzyme inhibitory activity (hydrolysis of S-Adenosyl-L-Homocysteine, HPLC). It is filed as biochemical. The settings on record: S-Adenosyl-L-Homocysteine 10 μM, pH 7.2, 37° C., 15 min. As for the experimental part: The enzyme inhibitory activity of the compounds of the Examples was measured using the hydrolysis activity of S-Adenosyl-L-Homocysteine as an index. The measurement method was modification of the method of Henry H. Richards et al. (J. Biol. Chem. 253, 4476-4480, 1978). That is, S-Adenosyl-L-Homocysteine (10 μM) and Adenosine Deaminase (Roche) (4 units) were added to 50 mM phosphate buffer (pH 7.2, containing 1 mM EDTA) with the total amount being 200 μl, and to the solution were added a test substance and then Human-recombinant-S-Adenosyl-L-Homocysteine Hydrolase (50 ng, Diazyme Laboratories) to start the reaction, and the mixture was incubated at 37° C. for 15 min. The reaction was quenched by the addition of 1N aqueous perchloric solution (20 μl), and the mixture was centrifuged under the conditions of 10000 rpm, 5 min, 4° C. The supernatant was collected, and the amount of S-Adenosyl-L-Homocysteine after the reaction was quantified by HPLC. The column used was a reversed-phase column. The detailed conditions of HPLC were as follows.
column used: Wakopak^R HandyODS 150*4.6 mm (Wako Pure Chemical Industries, Ltd.) elution condition: 1.0 ml/min elution solvent: 0.1M acetate buffer (pH 4.0) containing 10 mM 1-heptanesulfonic acid containing 4% acetonitrile wavelength: 258 nm (UV) The inhibitory rate was determined with the amount of decrease in S-Adenosyl-L-Homocysteine before and after the reaction without using the test substance as 100%.
Inhibitory rate (%)={(amount of decrease of S-Adenosyl-L-Homocysteine in the presence of test substance)/(amount of decrease of S-Adenosyl-L-Homocysteine in the absence of test substance)}×100
With `Cc1nc(-c2ccc(C)c(N(CC(=O)NCCNC(C)C)CC(=O)N(C)N3Cc4ccccc4C3)c2)no1` [Example 15, N^2-{2-[1,3-dihydro-2H-isoindol-2-yl(methyl)amino]-2-oxoethyl}-N^2-[2-methyl-5-(5-methyl-1,2,4-oxadiazol-3-yl)phenyl]-N^1-[2-(isopropylamino)ethyl]glycinamide], the IC50 stood at 17 nM.

In the case of `CCNCCNC(=O)CN(CC(=O)N(C)N1Cc2ccccc2C1)c1cc(-c2noc(C)n2)ccc1C` [Example 16, N^2-{2-[1,3-dihydro-2H-isoindol-2-yl(methyl)amino]-2-oxoethyl}-N^2-[2-methyl-5-(5-methyl-1,2,4-oxadiazol-3-yl)phenyl]-N^1-[2-(ethylamino)ethyl]glycinamide], the half-inhibitory concentration (IC50) came to 19 nM.

Take `CCNCCNC(=O)CN(CC(=O)N(C)N1Cc2cccc(F)c2C1)c1cc(-c2noc(C)n2)ccc1C` [Example 19, N^2-{2-[(4-fluoro-1,3-dihydro-2H-isoindol-2-yl)(methyl)amino]-2-oxoethyl}-N^2-[2-methyl-5-(5-methyl-1,2,4-oxadiazol-3-yl)phenyl]-N^1-[2-(ethylamino)ethyl]glycinamide]: the IC50 amounted to 33 nM.

In the case of `CCNCCNC(=O)CN(CC(=O)N(C)C1Cc2ccccc2C1)c1cc(-c2noc(C)n2)ccc1C` [Example 26, N^2-{2-[2,3-dihydro-1H-inden-2-yl(methyl)amino]-2-oxoethyl}-N^2-[2-methyl-5-(5-methyl-1,2,4-oxadiazol-3-yl)phenyl]-N^1-[2-(ethylamino)ethyl]glycinamide], the half-maximal inhibitory concentration (IC50) stood at 56 nM.

In the case of `CC(=O)c1ccc(C)c(N(CC(=O)NCCNC(C)C)CC(=O)N(C)N2Cc3ccccc3C2)c1` [Example 56, N^2-(5-acetyl-2-methylphenyl)-N^2-{2-[1,3-dihydro-2H-isoindol-2-yl(methyl)amino]-2-oxoethyl}-N^1-[2-(isopropylamino)ethyl]glycinamide], the 50% inhibitory concentration (IC50) was 52 nM.

Take `CCNCCNC(=O)CN(CC(=O)N(C)N1Cc2ccccc2C1)c1cc(C(C)=O)ccc1C` [Example 57, N^2-(5-acetyl-2-methylphenyl)-N^2-{2-[1,3-dihydro-2H-isoindol-2-yl(methyl)amino]-2-oxoethyl}-N^1-[2-(ethylamino)ethyl]glycinamide]: the half-maximal inhibitory concentration (IC50) is 42 nM.

For the compound `Cc1noc(-c2ccc(C)c(N(CC(=O)NCCNC(C)C)CC(=O)N(C)N3Cc4ccccc4C3)c2)n1` [Example 84, N^2-{2-[1,3-dihydro-2H-isoindol-2-yl(methyl)amino]-2-oxoethyl}-N^2-[2-methyl-5-(3-methyl-1,2,4-oxadiazol-5-yl)phenyl]-N^1-[2-(isopropylamino)ethyl]glycinamide], the IC50 is 34 nM.

For the compound `CCNCCNC(=O)CN(CC(=O)N(C)N1Cc2ccccc2C1)c1cc(-c2nc(C)no2)ccc1C` [Example 85, N^2-{2-[1,3-dihydro-2H-isoindol-2-yl(methyl)amino]-2-oxoethyl}-N^2-[2-methyl-5-(3-methyl-1,2,4-oxadiazol-5-yl)phenyl]-N^1-[2-(ethylamino)ethyl]glycinamide], the IC50 came to 17 nM.

For `CCNCCNC(=O)CN(CC(=O)N(C)N1Cc2ccc(F)cc2C1)c1cc(-c2nc(C)no2)ccc1C` [Example 87, N^2-{2-[(5-fluoro-1,3-dihydro-2H-isoindol-2-yl)(methyl)amino]-2-oxoethyl}-N^2-[2-methyl-5-(3-methyl-1,2,4-oxadiazol-5-yl)phenyl]-N^1-[2-(ethylamino)ethyl]glycinamide], the IC50 was determined as 18 nM.

`CCNCCNC(=O)CN(CC(=O)N(C)N1Cc2ccccc2C1)c1cc(-c2ncccn2)ccc1C` [Example 129, N^2-{2-[1,3-dihydro-2H-isoindol-2-yl(methyl)amino]-2-oxoethyl}-N^2-(2-methyl-5-pyrimidin-2-ylphenyl)-N^1-[2-(ethylamino)ethyl]glycinamide]: the IC50 came to 10 nM.

As for `CCNCCNC(=O)CN(CC(=O)N(C)N1Cc2ccccc2C1)c1cc2c(cc1C)N(CC)C(=O)CC2` [Example 177, N^2-{2-[1,3-dihydro-2H-isoindol-2-yl(methyl)amino]-2-oxoethyl}-N^2-(1-ethyl-7-methyl-2-oxo-1,2,3,4-tetrahydroquinolin-6-yl)-N^1-[2-(ethylamino)ethyl]glycinamide], the IC50 came to 46 nM.

Regarding `Cc1cc2onc(C)c2cc1N(CC(=O)NCCNC(C)C)CC(=O)N(C)N1Cc2ccccc2C1` [Example 180, N^2-{2-[1,3-dihydro-2H-isoindol-2-yl(methyl)amino]-2-oxoethyl}-N^2-(3,6-dimethyl-1,2-benzisoxazol-5-yl)-N^1-[2-(isopropylamino)ethyl]glycinamide], the 50% inhibitory concentration (IC50) turned out to be 15 nM.

Turning to `CCNCCNC(=O)CN(CC(=O)N(C)N1Cc2ccccc2C1)c1cc2c(C)noc2cc1C` [Example 181, N^2-{2-[1,3-dihydro-2H-isoindol-2-yl(methyl)amino]-2-oxoethyl}-N^2-(3,6-dimethyl-1,2-benzisoxazol-5-yl)-N^1-[2-(ethylamino)ethyl]glycinamide], the IC50 was 16 nM.

Regarding `Cc1cc2oc(=O)n(C)c2cc1N(CC(=O)NCCNC(C)C)CC(=O)N(C)N1Cc2ccccc2C1` [Example 190, N^2-{2-[1,3-dihydro-2H-isoindol-2-yl(methyl)amino]-2-oxoethyl}-N^2-(3,6-dimethyl-1,3-benzoxazol-2(3H)-on-5-yl)-N^1-[2-(isopropylamino)ethyl]glycinamide], the half-inhibitory concentration (IC50) was 88 nM.

As to `CCNCCNC(=O)CN(CC(=O)N(C)N1Cc2ccccc2C1)c1cc2c(cc1C)oc(=O)n2C` [Example 191, N^2-{2-[1,3-dihydro-2H-isoindol-2-yl(methyl)amino]-2-oxoethyl}-N^2-(3,6-dimethyl-1,3-benzoxazol-2(3H)-on-5-yl)-N^1-[2-(ethylamino)ethyl]glycinamide], the IC50 turned out to be 51 nM.

With `Cc1cc2c(cc1N(CC(=O)NCCNC(C)C)CC(=O)N(C)N1Cc3ccccc3C1)oc(=O)n2C` [Example 192, N^2-{2-[1,3-dihydro-2H-isoindol-2-yl(methyl)amino]-2-oxoethyl}-N^2-(3,5-dimethyl-1,3-benzoxazol-2(3H)-on-6-yl)-N^1-[2-(isopropylamino)ethyl]glycinamide], the IC50 turned out to be 46 nM.

In the case of `CCNCCNC(=O)CN(CC(=O)N(C)N1Cc2ccccc2C1)c1cc2oc(=O)n(C)c2cc1C` [Example 193, N^2-{2-[1,3-dihydro-2H-isoindol-2-yl(methyl)amino]-2-oxoethyl}-N^2-(3,5-dimethyl-1,3-benzoxazol-2(3H)-on-6-yl)-N^1-[2-(ethylamino)ethyl]glycinamide], the half-maximal inhibitory concentration (IC50) amounted to 29 nM.

Consider `CCNCCNC(=O)CN(CC(=O)N(C)N1Cc2ccc(F)cc2C1)c1ccc(-c2noc(C)n2)cc1C` [Example 204, N^2-{2-[(5-fluoro-1,3-dihydro-2H-isoindol-2-yl)(methyl)amino]-2-oxoethyl}-N^2-[2-methyl-4-(5-methyl-1,2,4-oxadiazol-3-yl)phenyl]-N^1-[2-(ethylamino)ethyl]glycinamide], for which the half-maximal inhibitory concentration (IC50) worked out at 65 nM.

As for `CCNCCNC(=O)CN(CC(=O)N(C)N1Cc2cccc(F)c2C1)c1ccc(-c2noc(C)n2)cc1C` [Example 205, N^2-{2-[(4-fluoro-1,3-dihydro-2H-isoindol-2-yl)(methyl)amino]-2-oxoethyl}-N^2-[2-methyl-4-(5-methyl-1,2,4-oxadiazol-3-yl)phenyl]-N^1-[2-(ethylamino)ethyl]glycinamide], the IC50 was determined as 48 nM.

Turning to `CCNCCNC(=O)CN(CC(=O)N(C)N1Cc2ccccc2C1)c1ccc(C(C)=O)cc1C` [Example 210, N^2-(4-acetyl-2-methylphenyl)-N^2-{2-[1,3-dihydro-2H-isoindol-2-yl(methyl)amino]-2-oxoethyl}-N^1-[2-(ethylamino)ethyl]glycinamide], the IC50 was 34 nM.

With `CCNCCNC(=O)CN(CC(=O)N(C)N1Cc2ccc(F)cc2C1)c1ccc(C(C)=O)cc1C` [Example 211, N^2-(4-acetyl-2-methylphenyl)-N^2-{2-[(5-fluoro-1,3-dihydro-2H-isoindol-2-yl)(methyl)amino]-2-oxoethyl}-N^1-[2-(ethylamino)ethyl]glycinamide], the IC50 was 51 nM.

With `CCNCCNC(=O)CN(CC(=O)N(C)N1Cc2ccccc2C1)c1cc2c(cc1C)CCC2=O` [Example 214, N^2-{2-[1,3-dihydro-2H-isoindol-2-yl(methyl)amino]-2-oxoethyl}-N^2-(6-methyl-3-oxo-2,3-dihydro-1H-inden-5-yl)-N^1-[2-(ethylamino)ethyl]glycinamide], the half-inhibitory concentration (IC50) worked out at 23 nM.

As for `CCNCCNC(=O)CN(CC(=O)N(C)N1Cc2cccc(F)c2C1)c1cc2c(cc1C)CCC2=O` [Example 216, N^2-{2-[(4-fluoro-1,3-dihydro-2H-isoindol-2-yl)(methyl)amino]-2-oxoethyl}-N^2-(6-methyl-3-oxo-2,3-dihydro-1H-inden-5-yl)-N^1-[2-(ethylamino)ethyl]glycinamide], the half-inhibitory concentration (IC50) is 33 nM.

For the compound `CCNCCNC(=O)CN(CC(=O)N(C)N1Cc2ccc(F)cc2C1)c1ccc(-c2nc(C)no2)cc1C` [Example 231, N^2-{2-[(5-fluoro-1,3-dihydro-2H-isoindol-2-yl)(methyl)amino]-2-oxoethyl}-N^2-[2-methyl-4-(3-methyl-1,2,4-oxadiazol-5-yl)phenyl]-N^1-[2-(ethylamino)ethyl]glycinamide], the 50% inhibitory concentration (IC50) came to 46 nM.
